Measured values reported in PubChem BioAssay AID2060499 (Molecular Pharmacology Branch, DTP, NCI, 2025).
pIC50: −log10 of the molar value.

System: 777334-354-R2-J4-PDC tumor spheroids with HUVEC/MSC, viability
Experiment: Anticancer human tumor 777334-354-R2-J4-PDC patient-derived pancreatic adenocarcinoma cell line growth inhibition [GQUAD]
Conditions: for pIC50: curve of first compound; for viability, T/C: stronger effect = lower value
Method in brief: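 Viability of tumor cells grown as complex spheroids with endothelial and stromal cells, exposed to drug combinations. Top concentration at or near clinical Cmax (else 10 microM), diluted in half-log increments.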

[1] = second compound 0.0316 µM, first compound 0.0316 µM
[2] = second compound 0.0316 µM, first compound 0.1 µM
[3] = second compound 0.0316 µM, first compound 0.316 µM
[4] = second compound 0.0316 µM, first compound 1 µM
[5] = second compound 0.0316 µM, first compound 3.16 µM
[6] = second compound 0.0316 µM, first compound 10 µM
[7] = second compound 0.1 µM, first compound 0.0316 µM
[8] = second compound 0.1 µM, first compound 0.1 µM
[9] = second compound 0.1 µM, first compound 0.316 µM
[10] = second compound 0.1 µM, first compound 1 µM
[11] = second compound 0.1 µM, first compound 3.16 µM
[12] = second compound 0.1 µM, first compound 10 µM
[13] = second compound 0.316 µM, first compound 0.0316 µM
[14] = second compound 0.316 µM, first compound 0.1 µM
[15] = second compound 0.316 µM, first compound 0.316 µM
[16] = second compound 0.316 µM, first compound 1 µM
[17] = second compound 0.316 µM, first compound 3.16 µM
[18] = second compound 0.316 µM, first compound 10 µM
[19] = second compound 1 µM, first compound 0.0316 µM
[20] = second compound 1 µM, first compound 0.1 µM
[21] = second compound 1 µM, first compound 0.316 µM
[22] = second compound 1 µM, first compound 1 µM
[23] = second compound 1 µM, first compound 3.16 µM
[24] = second compound 1 µM, first compound 10 µM
[25] = second compound 3.16 µM, first compound 0.0316 µM
[26] = second compound 3.16 µM, first compound 0.1 µM
[27] = second compound 3.16 µM, first compound 0.316 µM
[28] = second compound 3.16 µM, first compound 1 µM
[29] = second compound 3.16 µM, first compound 3.16 µM
[30] = second compound 3.16 µM, first compound 10 µM
[31] = second compound 10 µM, first compound 0.0316 µM
[32] = second compound 10 µM, first compound 0.1 µM
[33] = second compound 10 µM, first compound 0.316 µM
[34] = second compound 10 µM, first compound 1 µM
[35] = second compound 10 µM, first compound 3.16 µM
[36] = second compound 10 µM, first compound 10 µM
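Note: spheroids exposed to compounds for 7 days before readout.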

## C#Cc1c(F)ccc2cc(O)cc(-c3ncc4c(N5CC6CCC(C5)N6)nc(OCC56CCCN5CC(F)C6)nc4c3F)c12 (stereo not given) + Cc1cnc(CNC(=O)c2c(=O)c3ccc(N4CCCN(C)CC4)nc3n3c2sc2ccccc23)cn1
Second compound 0.0316 µM
  pIC50: > 7.50
Second compound 0.1 µM
  pIC50: > 7.50
Second compound 0.316 µM
  pIC50: > 7.50
Second compound 1 µM
  pIC50: > 7.50
Second compound 3.16 µM
  pIC50: > 7.50
Second compound 10 µM
  pIC50: > 7.50
[1]
  viability, T/C: 49.7%
[2]
  viability, T/C: 38.7%
[3]
  viability, T/C: 31.4%
[4]
  viability, T/C: 31.6%
[5]
  viability, T/C: 27.1%
[6]
  viability, T/C: 24.2%
[7]
  viability, T/C: 45.1%
[8]
  viability, T/C: 34.4%
[9]
  viability, T/C: 30.9%
[10]
  viability, T/C: 26.4%
[11]
  viability, T/C: 23.5%
[12]
  viability, T/C: 21.3%
[13]
  viability, T/C: 39.6%
[14]
  viability, T/C: 33.8%
[15]
  viability, T/C: 28.8%
[16]
  viability, T/C: 25.6%
[17]
  viability, T/C: 22.6%
[18]
  viability, T/C: 19.9%
[19]
  viability, T/C: 36.2%
[20]
  viability, T/C: 29.4%
[21]
  viability, T/C: 31.1%
[22]
  viability, T/C: 23.6%
[23]
  viability, T/C: 21.9%
[24]
  viability, T/C: 19.4%
[25]
  viability, T/C: 28%
[26]
  viability, T/C: 25.5%
[27]
  viability, T/C: 22.8%
[28]
  viability, T/C: 19.2%
[29]
  viability, T/C: 17.5%
[30]
  viability, T/C: 14.4%
[31]
  viability, T/C: 22%
[32]
  viability, T/C: 16.7%
[33]
  viability, T/C: 15%
[34]
  viability, T/C: 8.71%
[35]
  viability, T/C: 8.87%
[36]
  viability, T/C: 3.17%

## COc1cc(C2c3cc4c(cc3C(OC3OC5COC(C)OC5C(O)C3O)C3COC(=O)C23)OCO4)cc(OC)c1O (stereo not given) + Cc1cnc(CNC(=O)c2c(=O)c3ccc(N4CCCN(C)CC4)nc3n3c2sc2ccccc23)cn1
Second compound 0.0316 µM
  pIC50: 5.21
Second compound 0.1 µM
  pIC50: 5.35
Second compound 0.316 µM
  pIC50: 5.43
Second compound 1 µM
  pIC50: 5.29
Second compound 3.16 µM
  pIC50: 5.60
Second compound 10 µM
  pIC50: 5.54
[1]
  viability, T/C: 94.8%
[2]
  viability, T/C: 90.6%
[3]
  viability, T/C: 85.2%
[4]
  viability, T/C: 70.9%
[5]
  viability, T/C: 54.7%
[6]
  viability, T/C: 46.6%
[7]
  viability, T/C: 84.6%
[8]
  viability, T/C: 78.5%
[9]
  viability, T/C: 79.6%
[10]
  viability, T/C: 73.4%
[11]
  viability, T/C: 56.1%
[12]
  viability, T/C: 34.9%
[13]
  viability, T/C: 79.3%
[14]
  viability, T/C: 85%
[15]
  viability, T/C: 77%
[16]
  viability, T/C: 72.7%
[17]
  viability, T/C: 51.4%
[18]
  viability, T/C: 39.7%
[19]
  viability, T/C: 68.4%
[20]
  viability, T/C: 75.2%
[21]
  viability, T/C: 76.1%
[22]
  viability, T/C: 64%
[23]
  viability, T/C: 60%
[24]
  viability, T/C: 37.5%
[25]
  viability, T/C: 57.1%
[26]
  viability, T/C: 64.5%
[27]
  viability, T/C: 61.6%
[28]
  viability, T/C: 61.1%
[29]
  viability, T/C: 47.1%
[30]
  viability, T/C: 40.7%
[31]
  viability, T/C: 58.6%
[32]
  viability, T/C: 57.3%
[33]
  viability, T/C: 55.2%
[34]
  viability, T/C: 52%
[35]
  viability, T/C: 51.5%
[36]
  viability, T/C: 34.7%

## COc1cccc2c1C(=O)c1c(O)c3c(c(O)c1C2=O)CC(O)(C(=O)CO)CC3OC1CC(N)C(O)C(C)O1 (stereo not given) + Cc1cnc(CNC(=O)c2c(=O)c3ccc(N4CCCN(C)CC4)nc3n3c2sc2ccccc23)cn1
Second compound 0.0316 µM
  pIC50: 6.06
Second compound 0.1 µM
  pIC50: 6.11
Second compound 0.316 µM
  pIC50: 5.98
Second compound 1 µM
  pIC50: 6.06
Second compound 3.16 µM
  pIC50: 6.16
Second compound 10 µM
  pIC50: 6.40
[1]
  viability, T/C: 88.3%
[2]
  viability, T/C: 87.2%
[3]
  viability, T/C: 81.8%
[4]
  viability, T/C: 44.3%
[5]
  viability, T/C: 23.4%
[6]
  viability, T/C: 11.9%
[7]
  viability, T/C: 83.8%
[8]
  viability, T/C: 77.2%
[9]
  viability, T/C: 76.8%
[10]
  viability, T/C: 40.7%
[11]
  viability, T/C: 22.5%
[12]
  viability, T/C: 10.7%
[13]
  viability, T/C: 73.5%
[14]
  viability, T/C: 80.8%
[15]
  viability, T/C: 63.3%
[16]
  viability, T/C: 52.1%
[17]
  viability, T/C: 26.3%
[18]
  viability, T/C: 6.61%
[19]
  viability, T/C: 63%
[20]
  viability, T/C: 70.4%
[21]
  viability, T/C: 67.3%
[22]
  viability, T/C: 45.4%
[23]
  viability, T/C: 21.8%
[24]
  viability, T/C: 4.42%
[25]
  viability, T/C: 64.2%
[26]
  viability, T/C: 64.1%
[27]
  viability, T/C: 68%
[28]
  viability, T/C: 40.9%
[29]
  viability, T/C: 16%
[30]
  viability, T/C: 0.58%
[31]
  viability, T/C: 57.3%
[32]
  viability, T/C: 55.8%
[33]
  viability, T/C: 55.8%
[34]
  viability, T/C: 35.3%
[35]
  viability, T/C: 11.9%
[36]
  viability, T/C: 0.28%

## Nc1ccn(C2OC(CO)C(O)C2(F)F)c(=O)n1 (stereo not given) + Cc1cnc(CNC(=O)c2c(=O)c3ccc(N4CCCN(C)CC4)nc3n3c2sc2ccccc23)cn1
Second compound 0.0316 µM
  pIC50: 6.01
Second compound 0.1 µM
  pIC50: 6.17
Second compound 0.316 µM
  pIC50: 5.92
Second compound 1 µM
  pIC50: 6.48
Second compound 3.16 µM
  pIC50: 6.30
Second compound 10 µM
  pIC50: 6.74
[1]
  viability, T/C: 81.2%
[2]
  viability, T/C: 61.2%
[3]
  viability, T/C: 69.1%
[4]
  viability, T/C: 46.3%
[5]
  viability, T/C: 39.1%
[6]
  viability, T/C: 31.6%
[7]
  viability, T/C: 85.4%
[8]
  viability, T/C: 64.5%
[9]
  viability, T/C: 60.8%
[10]
  viability, T/C: 45.7%
[11]
  viability, T/C: 37.5%
[12]
  viability, T/C: 32.7%
[13]
  viability, T/C: 81.5%
[14]
  viability, T/C: 72.5%
[15]
  viability, T/C: 55.5%
[16]
  viability, T/C: 51.7%
[17]
  viability, T/C: 47.8%
[18]
  viability, T/C: 31.6%
[19]
  viability, T/C: 67.9%
[20]
  viability, T/C: 58.2%
[21]
  viability, T/C: 46.4%
[22]
  viability, T/C: 45.2%
[23]
  viability, T/C: 41.1%
[24]
  viability, T/C: 30.2%
[25]
  viability, T/C: 61.1%
[26]
  viability, T/C: 64%
[27]
  viability, T/C: 48.4%
[28]
  viability, T/C: 43.9%
[29]
  viability, T/C: 43.6%
[30]
  viability, T/C: 30.5%
[31]
  viability, T/C: 57.3%
[32]
  viability, T/C: 48.3%
[33]
  viability, T/C: 48.7%
[34]
  viability, T/C: 40.4%
[35]
  viability, T/C: 41.6%
[36]
  viability, T/C: 27%

## O=c1[nH]cc(F)c(=O)[nH]1 + Cc1cnc(CNC(=O)c2c(=O)c3ccc(N4CCCN(C)CC4)nc3n3c2sc2ccccc23)cn1
Second compound 0.0316 µM
  pIC50: < 5.00
Second compound 0.1 µM
  pIC50: < 5.00
Second compound 0.316 µM
  pIC50: < 5.00
Second compound 1 µM
  pIC50: < 5.00
Second compound 3.16 µM
  pIC50: < 5.00
Second compound 10 µM
  pIC50: < 5.00
[1]
  viability, T/C: 97.7%
[2]
  viability, T/C: 94.8%
[3]
  viability, T/C: 91.9%
[4]
  viability, T/C: 87.9%
[5]
  viability, T/C: 69.5%
[6]
  viability, T/C: 64.5%
[7]
  viability, T/C: 82.4%
[8]
  viability, T/C: 84.8%
[9]
  viability, T/C: 89%
[10]
  viability, T/C: 80.1%
[11]
  viability, T/C: 82%
[12]
  viability, T/C: 68.3%
[13]
  viability, T/C: 85.3%
[14]
  viability, T/C: 82.8%
[15]
  viability, T/C: 73.8%
[16]
  viability, T/C: 75.8%
[17]
  viability, T/C: 74.7%
[18]
  viability, T/C: 66.5%
[19]
  viability, T/C: 71.3%
[20]
  viability, T/C: 66.8%
[21]
  viability, T/C: 68%
[22]
  viability, T/C: 67.7%
[23]
  viability, T/C: 73.2%
[24]
  viability, T/C: 65.7%
[25]
  viability, T/C: 59.4%
[26]
  viability, T/C: 73.2%
[27]
  viability, T/C: 67.3%
[28]
  viability, T/C: 61.6%
[29]
  viability, T/C: 68.8%
[30]
  viability, T/C: 56%
[31]
  viability, T/C: 57.7%
[32]
  viability, T/C: 61.9%
[33]
  viability, T/C: 59%
[34]
  viability, T/C: 59.7%
[35]
  viability, T/C: 50.8%
[36]
  viability, T/C: 51.8%
